From ChEMBL document CHEMBL1165880, “'On water' assisted synthesis and biological evaluation of nitrogen and sulfur containing hetero-1,4-naphthoquinones as potent antifungal and antibacterial agents” (2010)
≈ marks a conversion by molar mass, not a printed value. Calls of active or inactive are those of the source. The rule behind the calls is not given here.

How the values were obtained:
Escherichia coli = assay: Antibacterial activity against Escherichia coli after 24 hrs by micro broth dilution method; format: functional
Staphylococcus aureus = assay: Antibacterial activity against Staphylococcus aureus ATCC 25923 after 24 hrs by micro broth dilution method; format: functional
Klebsiella pneumoniae = assay: Antibacterial activity against Klebsiella pneumoniae ATCC 27736 after 24 hrs by micro broth dilution method; format: functional
Candida albicans = assay: Antifungal activity against Candida albicans after 48 hrs by micro broth dilution method; format: functional
Cryptococcus neoformans = assay: Antifungal activity against Cryptococcus neoformans after 72 hrs by micro broth dilution method; format: functional
[1] = test system: Trichophyton mentagrophytes; assay: Antifungal activity against Trichophyton mentagrophytes after 96 hrs by micro broth dilution method; format: functional
Aspergillus fumigatus = assay: Antifungal activity against Aspergillus fumigatus after 72 hrs by micro broth dilution method; format: functional
Candida parapsilosis = assay: Antifungal activity against Candida parapsilosis ATCC 22019 after 48 hrs by micro broth dilution method; format: functional
Pseudomonas aeruginosa = assay: Antibacterial activity against Pseudomonas aeruginosa […] at 50 ug/ml after 24 hrs by micro broth dilution method; format: functional, organism-based

Compound	MIC50 (Escherichia coli)	MIC50 (Staphylococcus aureus)	MIC50 (Klebsiella pneumoniae)	MIC50 (Candida albicans)	MIC50 (Cryptococcus neoformans)	MIC50 [1]	MIC50 (Aspergillus fumigatus)	MIC50 (Candida parapsilosis)	Activity (Pseudomonas aeruginosa)
GENTAMICIN	0.38 µM	1.63 µM	0.82 µM						
NC[C@H]1O[C@H](O[C@H]2[C@H](O)[C@@H](O[C@H]3O[C@H](CO)[C@@H](O)[C@H](N)[C@H]3O)[C@H](N)C[C@@H]2N)[C@H](N)C[C@@H]1O [TOBRAMYCIN]	1.07 µM (≈ 0.5 µg/mL)	0.53 µM (≈ 0.248 µg/mL)	2.14 µM (≈ 1 µg/mL)						
NC[C@H]1O[C@H](O[C@H]2[C@H](O)[C@@H](O[C@H]3O[C@H](CO)[C@@H](O)[C@H](N)[C@H]3O)[C@H](N)C[C@@H]2N)[C@H](O)[C@@H](O)[C@@H]1O [KANAMYCIN]	33 µM (≈ 16 µg/mL)	4.13 µM (≈ 2 µg/mL)	66 µM (≈ 32 µg/mL)						
CCOC(=O)C(C)SC1=C(Cl)C(=O)c2ccccc2C1=O (stereo not given)	38.5 µM (≈ 12.5 µg/mL)	38.5 µM (≈ 12.5 µg/mL)	154 µM (≈ 50 µg/mL)	> 154 µM	38.5 µM (≈ 12.5 µg/mL)	> 154 µM	> 154 µM	> 154 µM	
O=C1C(=O)c2ccccc2C(O)=C1Sc1ccccc1	88.6 µM (≈ 25 µg/mL)	177 µM (≈ 50 µg/mL)	177 µM (≈ 50 µg/mL)	177 µM (≈ 50 µg/mL)	> 177 µM	177 µM (≈ 50 µg/mL)	> 177 µM	> 177 µM	inactive
C[C@@H]1[C@H](O)[C@@H](C)/C=C/C=C/C=C/C=C/C=C/C=C/C=C/[C@H](O[C@@H]2O[C@H](C)[C@@H](O)[C@H](N)[C@@H]2O)C[C@@H]2O[C@](O)(C[C@@H](O)C[C@@H](O)[C@H](O)CC[C@@H](O)C[C@@H](O)CC(=O)O[C@H]1C)C[C@H](O)[C@H]2C(=O)O [AMPHOTERICIN B]				0.42 µM (≈ 0.388 µg/mL)	0.84 µM (≈ 0.776 µg/mL)	1.69 µM (≈ 1.56 µg/mL)			
Cc1sc2c(=O)c3ccccc3c(=O)c=2n(C)c1O	5.71 µM (≈ 1.56 µg/mL)	11.4 µM (≈ 3.12 µg/mL)	11.4 µM (≈ 3.12 µg/mL)	22.9 µM (≈ 6.25 µg/mL)	11.4 µM (≈ 3.12 µg/mL)	5.71 µM (≈ 1.56 µg/mL)	22.9 µM (≈ 6.25 µg/mL)	45.7 µM (≈ 12.5 µg/mL)	
Clc1ccc(COC(Cn2ccnc2)c2ccc(Cl)cc2Cl)c(Cl)c1 (stereo not given) [MICONAZOLE]				60.1 µM (≈ 25 µg/mL)	30 µM (≈ 12.5 µg/mL)	< 1.87 µM	30 µM (≈ 12.5 µg/mL)		
CN1CCN(C2=C(Cl)C(=O)c3ccccc3C2=O)CC1	43.1 µM (≈ 12.5 µg/mL)	43.1 µM (≈ 12.5 µg/mL)	21.5 µM (≈ 6.26 µg/mL)	5.38 µM (≈ 1.56 µg/mL)	21.5 µM (≈ 6.26 µg/mL)	1.34 µM (≈ 0.39 µg/mL)	43.1 µM (≈ 12.5 µg/mL)	21.5 µM (≈ 6.26 µg/mL)	inactive
C=CCNC1=C(Cl)C(=O)c2ccccc2C1=O	101 µM (≈ 25 µg/mL)	101 µM (≈ 25 µg/mL)	25.2 µM (≈ 6.25 µg/mL)	50.5 µM (≈ 12.5 µg/mL)	50.5 µM (≈ 12.5 µg/mL)	3.15 µM (≈ 0.78 µg/mL)	101 µM (≈ 25 µg/mL)	50.5 µM (≈ 12.5 µg/mL)	inactive
O=C1C(Cl)=C(N2CCCCC2)C(=O)c2ccccc21	43.4 µM (≈ 12 µg/mL)	90.7 µM (≈ 25 µg/mL)	90.7 µM (≈ 25 µg/mL)	5.66 µM (≈ 1.56 µg/mL)	22.7 µM (≈ 6.26 µg/mL)	1.42 µM (≈ 0.392 µg/mL)	90.7 µM (≈ 25 µg/mL)	11.3 µM (≈ 3.12 µg/mL)	inactive
O=C1C(Cl)=C(NNc2ccccc2)C(=O)c2ccccc21	83.8 µM (≈ 25 µg/mL)	83.8 µM (≈ 25 µg/mL)	83.8 µM (≈ 25 µg/mL)	10.4 µM (≈ 3.12 µg/mL)	10.4 µM (≈ 3.12 µg/mL)	1.31 µM (≈ 0.391 µg/mL)	41.9 µM (≈ 12.5 µg/mL)	20.9 µM (≈ 6.26 µg/mL)	inactive
O=C1C(Cl)=C(N2CCCC2)C(=O)c2ccccc21	47.7 µM (≈ 12.5 µg/mL)	95.4 µM (≈ 25 µg/mL)	95.4 µM (≈ 25 µg/mL)	11.9 µM (≈ 3.11 µg/mL)	23.9 µM (≈ 6.24 µg/mL)	1.49 µM (≈ 0.39 µg/mL)	95.4 µM (≈ 25 µg/mL)	23.9 µM (≈ 6.24 µg/mL)	inactive
CN1CCN(C2=CC(=O)c3c(O)ccc(O)c3C2=O)CC1	173 µM (≈ 50 µg/mL)	173 µM (≈ 50 µg/mL)	173 µM (≈ 50 µg/mL)	> 173 µM	> 73.4 µM	> 173 µM	173 µM (≈ 50 µg/mL)	173 µM (≈ 50 µg/mL)	inactive
O=C1C(Cl)=C(N2CCOCC2)C(=O)c2ccccc21 [2-Chloro-3-morpholino-1,4-naphthoquinone]	45 µM (≈ 12.5 µg/mL)	180 µM (≈ 50 µg/mL)	22.5 µM (≈ 6.25 µg/mL)	45 µM (≈ 12.5 µg/mL)	22.5 µM (≈ 6.25 µg/mL)	2.81 µM (≈ 0.78 µg/mL)	90.1 µM (≈ 25 µg/mL)	22.5 µM (≈ 6.25 µg/mL)	inactive
CCOC(=O)CSC1=C(Cl)C(=O)c2ccccc2C1=O	40.2 µM (≈ 12.5 µg/mL)	40.2 µM (≈ 12.5 µg/mL)	161 µM (≈ 50 µg/mL)	> 161 µM	40.2 µM (≈ 12.5 µg/mL)	> 161 µM	> 161 µM	> 161 µM	
O=C(O)CSC1=C(Cl)C(=O)c2ccccc2C1=O	44.2 µM (≈ 12.5 µg/mL)	44.2 µM (≈ 12.5 µg/mL)	22.1 µM (≈ 6.25 µg/mL)	88.5 µM (≈ 25 µg/mL)	88.5 µM (≈ 25 µg/mL)	5.52 µM (≈ 1.56 µg/mL)	177 µM (≈ 50 µg/mL)	88.5 µM (≈ 25 µg/mL)	inactive
COC(=O)CSC1=C(Cl)C(=O)c2ccccc2C1=O	42.1 µM (≈ 12.5 µg/mL)	42.1 µM (≈ 12.5 µg/mL)	42.1 µM (≈ 12.5 µg/mL)	> 168 µM	168 µM (≈ 50 µg/mL)	42.1 µM (≈ 12.5 µg/mL)	168 µM (≈ 50 µg/mL)	168 µM (≈ 50 µg/mL)	inactive
O=C1C(Cl)=C(SCCS)C(=O)c2ccccc21	87.8 µM (≈ 25 µg/mL)	43.9 µM (≈ 12.5 µg/mL)	21.9 µM (≈ 6.25 µg/mL)	11 µM (≈ 3.12 µg/mL)	11 µM (≈ 3.12 µg/mL)	1.37 µM (≈ 0.39 µg/mL)	87.8 µM (≈ 25 µg/mL)	43.9 µM (≈ 12.5 µg/mL)	inactive
O=C1C=C(N2CCCC2)C(=O)c2c(O)ccc(O)c21	193 µM (≈ 50 µg/mL)	193 µM (≈ 50 µg/mL)	193 µM (≈ 50 µg/mL)	> 193 µM	> 193 µM	96.4 µM (≈ 25 µg/mL)	> 193 µM	> 193 µM	inactive
NCC[C@H](O)C(=O)N[C@@H]1C[C@H](N)[C@@H](O[C@H]2O[C@H](CN)[C@@H](O)[C@H](O)[C@H]2O)[C@H](O)[C@H]1O[C@H]1O[C@H](CO)[C@@H](O)[C@H](N)[C@H]1O [AMIKACIN]	1.71 µM (≈ 1 µg/mL)	27.3 µM (≈ 16 µg/mL)	1.71 µM (≈ 1 µg/mL)						
O=C(O)CC(SC1=C(Cl)C(=O)c2ccccc2C1=O)C(=O)O (stereo not given)	36.7 µM (≈ 12.5 µg/mL)	147 µM (≈ 50 µg/mL)	4.58 µM (≈ 1.56 µg/mL)	> 147 µM	147 µM (≈ 50 µg/mL)	36.7 µM (≈ 12.5 µg/mL)	147 µM (≈ 50 µg/mL)	147 µM (≈ 50 µg/mL)	inactive
Cn1c(O)csc2c(=O)c3ccccc3c(=O)c1=2	24.1 µM (≈ 6.25 µg/mL)	3 µM (≈ 0.778 µg/mL)	3 µM (≈ 0.778 µg/mL)	3 µM (≈ 0.778 µg/mL)	24.1 µM (≈ 6.25 µg/mL)	3 µM (≈ 0.778 µg/mL)	24.1 µM (≈ 6.25 µg/mL)	6.02 µM (≈ 1.56 µg/mL)	inactive
NYSTATIN				8.42 µM	3.78 µM				
OC(Cn1cncn1)(Cn1cncn1)c1ccc(F)cc1F [FLUCONAZOLE]				3.26 µM (≈ 0.998 µg/mL)	1.63 µM (≈ 0.499 µg/mL)	5.09 µM (≈ 1.56 µg/mL)		3.26 µM (≈ 0.998 µg/mL)	
